In US6602888B2, “Use of α1C specific compounds to treat benign prostatic hyperplasia” (Synaptic Pharmaceutical Corporation, priority 1992, dated 2003):
Like-named read-outs stand apart in the source and are kept apart here.

Columns and labels:
[1] = molecular target: T1, human α1C adrenergic receptor (Homo sapiens, UniProt P35348); assay: Radioligand binding, [3H]prazosin, cloned human α1C adrenergic receptor
T1 construct: The entire coding region of α1C (1401 bp); expressed in transfected cells
T1 sequence (P35348 1-466): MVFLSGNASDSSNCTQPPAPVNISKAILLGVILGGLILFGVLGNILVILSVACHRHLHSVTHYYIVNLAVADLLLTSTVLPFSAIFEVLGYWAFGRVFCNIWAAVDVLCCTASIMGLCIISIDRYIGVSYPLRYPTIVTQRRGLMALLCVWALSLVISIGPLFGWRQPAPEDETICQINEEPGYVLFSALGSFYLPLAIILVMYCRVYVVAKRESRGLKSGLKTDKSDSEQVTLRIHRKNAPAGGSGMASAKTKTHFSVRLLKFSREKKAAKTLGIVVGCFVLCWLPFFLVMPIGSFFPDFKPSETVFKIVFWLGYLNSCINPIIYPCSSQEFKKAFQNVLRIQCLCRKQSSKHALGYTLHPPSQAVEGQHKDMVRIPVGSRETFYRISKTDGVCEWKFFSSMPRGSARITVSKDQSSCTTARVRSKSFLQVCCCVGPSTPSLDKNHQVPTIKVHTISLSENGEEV
Excerpt: The construct involved ligating three partial overlapping fragments: a 5′ 0.6 kb HincII genomic clone, a central 1.8 EcoRI hippocampal cDNA clone, and a 3′ 0.6 Kb PstI genomic clone. The hippocampal cDNA fragment overlaps with the 5′ and 3′ genomic clones so that the HincII and PstI sites at the 5′ and 3′ ends of the cDNA clone, respectively, were utilized for ligation. This full-length clone was cloned into the KpnI site of the expression vector, using the 5′ and 3′ KpnI sites of the fragment, derived from vector (i.e., pBluescript) and 3′-untranslated sequences, respectively. Stable cell lines were selected as described above.

human D2 receptor = molecular target: T2, human D2 receptor (Homo sapiens, UniProt P14416); assay: [3H]spiperone binding, dopamine D2 receptor; conditions: for Ki: read-out: Dopamine D2 (pK1)
T2 construct: host or cells: COS-7, transient, DEAE-dextran
Description: The potency of α1 antagonists at the D2 receptor was determined using membrane preparations from COS-7 cells transfected with the gene encoding the human D2 receptor. The coding region for the human D2 receptor was obtained from a human striatum cDNA library, and cloned into the cloning site of PCDNA 1 eukariotic expression vector. The plasmid DNA for the D2 receptor is designated pcEXV-D2, and was deposited on Nov. […] This construct was transfected into COS-7 cells by the DEAE-dextran method. […] The cell lysates were incubated with [3H]spiperone (2 nM), using 10 μM (+)Butaclamol to determine nonspecific binding.

[2] = molecular target: T3, human α2A adrenergic receptor (Homo sapiens, UniProt P08913); assay: Competition binding, [3H]rauwolscine, α2A receptor
T3 sequence (P08913 1-465): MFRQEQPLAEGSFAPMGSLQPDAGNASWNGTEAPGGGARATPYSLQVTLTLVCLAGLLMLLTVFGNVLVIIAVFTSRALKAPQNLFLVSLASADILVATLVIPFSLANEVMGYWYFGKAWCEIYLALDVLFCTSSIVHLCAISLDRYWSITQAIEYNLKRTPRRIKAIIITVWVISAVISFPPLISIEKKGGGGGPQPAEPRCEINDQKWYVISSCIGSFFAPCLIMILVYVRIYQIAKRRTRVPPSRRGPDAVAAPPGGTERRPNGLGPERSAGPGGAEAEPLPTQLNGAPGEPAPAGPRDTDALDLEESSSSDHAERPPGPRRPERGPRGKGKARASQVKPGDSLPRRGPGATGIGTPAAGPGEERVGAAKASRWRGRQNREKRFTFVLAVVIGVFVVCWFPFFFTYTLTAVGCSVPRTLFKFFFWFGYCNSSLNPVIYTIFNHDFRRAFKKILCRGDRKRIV
Description: To determine the potency of α1 antagonists at the α2 receptors, LM(tk−) cell lines stably transfected with the genes encoding the α2A, α2B, and α2C receptors were used. The cell line expressing the α2A receptor is designated L-α2A, and was deposited on Nov. […] The cell line expressing the α2B receptor is designated L-NGC-α2B, and was deposited on Oct. […] The cell line expressing the α2C receptor is designated L-α2C, and was deposited on Nov. […] Cell lysates were prepared as described above (see Radioligand Binding Assays), and suspended in 25 mM glycylglycine buffer (pH 7.6 at room temperature).

human 5HT1E receptor = molecular target: T4, human 5HT1E receptor (Homo sapiens, UniProt P28566); assay: [3H]serotonin competition binding, 5HT1E receptor
T4 construct: host or cells: LM(tk-) clonal cell line 5HT1E-7
Description: 5HT1Dα, 5HT1Dβ, 5HT1E, 5HT1F Receptors: The cell lysates of LM(tk−) clonal cell line stably transfected with the genes encoding each of these 5HT receptor-subtypes were prepared as described above. The cell line for the 5HT1Dα receptor, designated as Ltk-8-30-84, was deposited on Apr. […] The cell for the 5HT1Dβ receptor, designated as Ltk-11, was deposited on Apr. […] The cell line for the 5HT1E receptor, designated 5 HT1E-7, was deposited on Nov. […] The cell line for the 5HT1F receptor, designated L-5-HT1F, was deposited on Dec. […] These preparations were suspended in 50 mM Tris-HCl buffer (pH 7.4 at 37° C.) containing 10 mM MgCl2, 0.2 mM EDTA, 10 μM pargyline, and 0.1% ascorbate.

[3] = molecular target: T5, human α1A adrenergic receptor (Homo sapiens, UniProt P25100); assay: Radioligand binding, [3H]prazosin, cloned human α1A adrenergic receptor
T5 sequence (P25100 1-572): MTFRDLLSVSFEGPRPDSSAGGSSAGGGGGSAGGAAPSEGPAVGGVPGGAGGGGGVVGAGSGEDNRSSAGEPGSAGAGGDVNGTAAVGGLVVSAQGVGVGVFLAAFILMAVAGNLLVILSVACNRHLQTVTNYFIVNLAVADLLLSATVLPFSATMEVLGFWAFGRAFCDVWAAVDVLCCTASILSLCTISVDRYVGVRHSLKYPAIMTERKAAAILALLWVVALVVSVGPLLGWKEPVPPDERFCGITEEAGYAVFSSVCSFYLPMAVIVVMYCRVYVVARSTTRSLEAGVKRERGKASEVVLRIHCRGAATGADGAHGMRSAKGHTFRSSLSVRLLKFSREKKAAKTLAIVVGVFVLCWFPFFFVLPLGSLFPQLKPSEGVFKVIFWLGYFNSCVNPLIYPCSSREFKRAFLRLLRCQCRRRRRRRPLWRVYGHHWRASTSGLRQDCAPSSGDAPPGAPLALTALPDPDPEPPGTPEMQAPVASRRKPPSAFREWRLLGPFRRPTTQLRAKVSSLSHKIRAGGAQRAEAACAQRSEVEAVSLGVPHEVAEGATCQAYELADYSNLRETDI

[4] = Table 2, cloned human receptor, read-out: Serotonin 5HT1E (pK1)
[5] = Table 2, cloned human receptor, read-out: Alpha-2 Adrenergic a2a (pK1) (converted)

T2 sequence (P14416 whole entry): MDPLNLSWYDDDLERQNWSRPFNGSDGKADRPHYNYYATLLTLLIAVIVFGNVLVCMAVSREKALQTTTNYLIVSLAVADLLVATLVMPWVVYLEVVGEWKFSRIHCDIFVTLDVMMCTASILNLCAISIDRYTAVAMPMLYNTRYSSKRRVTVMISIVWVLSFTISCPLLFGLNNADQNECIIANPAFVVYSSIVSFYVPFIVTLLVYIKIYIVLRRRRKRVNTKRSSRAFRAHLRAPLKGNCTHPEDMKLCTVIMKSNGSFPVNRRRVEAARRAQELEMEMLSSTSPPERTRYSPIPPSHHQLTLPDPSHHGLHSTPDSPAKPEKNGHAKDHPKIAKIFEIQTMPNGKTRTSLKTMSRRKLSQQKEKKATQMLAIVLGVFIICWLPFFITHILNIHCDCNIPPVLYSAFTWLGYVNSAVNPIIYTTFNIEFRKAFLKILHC
T4 sequence (P28566 whole entry): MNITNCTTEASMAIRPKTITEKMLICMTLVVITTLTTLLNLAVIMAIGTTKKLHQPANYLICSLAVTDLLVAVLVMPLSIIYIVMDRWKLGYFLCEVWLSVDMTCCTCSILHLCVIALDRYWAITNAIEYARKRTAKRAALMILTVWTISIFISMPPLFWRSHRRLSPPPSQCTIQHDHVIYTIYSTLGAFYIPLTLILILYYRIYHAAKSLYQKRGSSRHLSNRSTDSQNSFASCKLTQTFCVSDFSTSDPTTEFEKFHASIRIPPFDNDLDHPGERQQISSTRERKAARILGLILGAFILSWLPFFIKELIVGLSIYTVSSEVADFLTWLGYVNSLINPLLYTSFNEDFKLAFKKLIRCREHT

Row | Compound | Human Alpha-1 Adrenergic (pK1) a1C ([1]; Table 1, cloned human receptor) | Alpha-1 Adrenergic a1C (pK1) ([1]; Table 2, cloned human receptor) | Ki (human D2 receptor; Table 2, cloned human receptor) | Alpha-1 Adrenergic a1A (pK1) ([3]; Table 2, cloned human receptor) | Dopamine D2 (pK1) (human D2 receptor; Table 2, cloned human receptor) | Alpha-2 Adrenergic a2a (pK1) ([2]; Table 2, cloned human receptor) | Serotonin 5HT1E (pK1) (human 5HT1E receptor; Table 2, cloned human receptor) | also measured
1 | C=Cc1sc2ccc(Cl)c3c2c1CN(C)CC3 [SKF-104856, 7-Chloro-2-ethenyl-3,4,5,6-tetrahydro-4-methylthieno[4,3,2-ef][3]benzazepine, reference compound] | 7.60 | 7.60 | > 100 nM | – | – | – | – | Ki [2]: 50.1 nM; Ki (human 5HT1E receptor; [4]): > 1000 nM
2 | O=C(NC1CCN(CCc2c[nH]c3ccccc23)CC1)c1ccccc1 [Indoramin, reference compound] | – | – | > 10 nM | – | – | – | – | selectivity for the human α1C receptor relative to the other human α-adrenergic receptors ([1]; cloned human receptors): slightly selective; Ki [2, 5]: 11500 nM; Ki (human 5HT1E receptor; [4]): > 10000 nM
3 | COc1ccccc1N1CCN(CCCNc2c(C)c(=O)n(C)c(=O)n2C)CC1 [5-Methyl-Urapidil, 5-methylurapidil, reference compound] | 8.35 | 8.35 | – | 7.79 | <5.0 | 6.63 | – | –
4 | O=C(CCCN1CCC(NC(=O)c2ccccc2)CC1)c1ccccc1 [Compound 9] | 7.83 | 7.83 | – | 6.12 | <7.0 | 5.80 | <5.0 | –
5 | O=C(CCCN1CCC(NC(=O)c2ccccc2)CC1)c1ccc(Cl)cc1 [Compound 7] | 8.42 | 8.42 | – | 6.82 | <7.0 | – | <5.0 | –
6 | COC(=O)C1=C(C)NC(C)=C(C(=O)OCCCN2CCC(c3ccccc3)(c3ccccc3)CC2)C1c1ccc([N+](=O)[O-])cc1.Cl (stereo not drawn) [Compound 8, 2,6-Dimethyl-4-(4-nitrophenyl)-1,4-dihydropyridine-3,5-dicarboxylic acid [3-(4,4-diphenylpiperidin-1-yl)propyl] ester methyl ester hydrochloride] | – | – | > 1000 nM | 6.52 | – | 5.99 | – | Alpha-1 Adrenergic a1C (pK1) [1]: 8.48; Human Alpha-1 Adrenergic (pK1) a1C [1]: 8.48; Ki (human 5HT1E receptor): > 10000 nM
7 | 4-fluoro-4-(8-fluoro-1,3,4,5-tetrahydro-2H-pyrido[4,3-b]indol-2-yl)butyrophenone hydrochloride [Compound A-30360, reference compound] | – | – | – | – | – | – | <5.0 | Alpha-1 Adrenergic a1A (pK1) [3]: 7.49; Alpha-1 Adrenergic a1C (pK1) [1]: 8.52; Human Alpha-1 Adrenergic (pK1) a1C [1]: 8.52; Dopamine D2 (pK1) (human D2 receptor): <9.0; Alpha-2 Adrenergic a2a (pK1) [2]: 6.69
8 | COc1ccc(CCNCC2CCc3ccccc3C2)cc1 (stereo not drawn) [Compound 11, 2-[(4-Methoxyphenethyl)aminomethyl]-1,2,3,4-tetrahydronaphthalene] | – | 8.36 | > 1000 nM | 6.81 | – | – | – | Ki [3]: 155 nM; Ki ([1]; Table 1, cloned human receptor, read-out: Human Alpha-1 Adrenergic (pK1) a1C (converted)): 4.37 nM; binding affinity at α1C receptors relative to binding affinities at other receptors ([1]; versus the other receptors of Table 2): greater than ten-fold higher; Ki [2, 5]: 138 nM; Ki (human 5HT1E receptor): > 10000 nM
